Experimental findings from article PMC8783508, “A novel D-amino acid peptide with therapeutic potential (ISAD1) inhibits aggregation of neurotoxic disease-relevant mutant Tau and prevents Tau toxicity in vitro” (Alzheimer's Research & Therapy, 2022) are described below.

SMILES strings stand for the structures. Non-standard residues stand in square brackets, D forms with d. Residues, ends and D or L forms follow the SMILES beside them.

One series has as its target T1, Tau^FLΔK (Homo sapiens, UniProt P10636, DEL597-597).
T1 construct: Tau^FLΔK Full-length Tau mutant ΔK280
Description: Fibrillization of Tau^FLΔK monitored by ThS assay. In kind it is biochemical. The note with it: Tau:peptide = 1:1; 1:5; 1:10. As for the experimental part: For Tau fibrillization inhibition assays, 10 μM Tau mutant protein (Tau^RDΔK, Tau^FLΔK, Tau^FL-A152T, Tau^FL-P301L) was incubated in BES buffer (N,N-bis(2-hydroxyethyl)-2-aminoethanesulfonic acid, pH 7) in the presence of 2.5 μM heparin at 37 °C for 24 h with and without novel D-peptides (ISAD1 and ISAD1rev) at different concentrations (1 nM to 200 μM). Final concentration of 20 μM ThS was used for monitoring fibrillization. The assay was performed with 40-μl sample volume per well in a 384-well microtiter plate (Thermo LabSystems, Dreieich, Germany). The fibrillization of Tau was monitored by ThS and the relative fluorescence intensity of ThS was read out at 440 excitation/521 emission nm in a Tecan micro titer plate reader (Tecan, Männedorf, Switzerland).

Series [1] deals with Tau^FLΔK, Tau^FL-A152T, Tau^FL-P301L. Description: Pelleting assay and western blot, full-length Tau mutants. The note with it: 10 µM Tau mutant, 100 µM peptide, 24 hours, K9JA western blot. In kind it is biochemical, human. As for the experimental part:
After the ThS assay (end time point, 24 h), 70 μl of each sample (pooled together from 2 wells) was centrifuged in a Beckmann coulter (Optima Max Ultra Centrifuge, TLA 100.3 rotor) at 61,000 rpm for 60 min at 4 °C. After centrifugation, the supernatant was separated from the pellet. Then, the pellet was dissolved in BES buffer in an equal volume as the supernatant. For the following western blot, 12-μl samples were mixed with 3-μl SDS-sample buffer (5x), heated for 5 min at 95 °C, and loaded onto a 8–16% SDS tris-glycine-gel (BioRad, Feldkirchen, Germany). The proteins were transferred to a polyvinylidene fluoride (PVDF) membrane. After the transfer, the membrane was blocked in 5% non-fat dry milk. After washing the membrane three times for 10 min with TBST, the primary pan-Tau K9JA antibody (1:5000; Agilent, Waldbronn, Germany) was incubated for 1 h at RT with gentle agitation, followed by again 3-times washing with TBST. […] The quantification of intensities was performed using ImageJ.
S-Figure 4-6: ISAD1 induces the formation of non-fibrillar large aggregates of Tau mutants. […] (C) The intensity of protein amount in supernatant and pellet was quantified by ImageJ for different Tau mutants such as Tau^FLΔK (Sup. Fig. 2C), Tau^FL-^A152T (Sup. Fig. 3C) or Tau^FL^-P^301L (Sup. Fig. 4C).
For orientation: Immunoblotting shows a protein as a band on a membrane.

In series [2] the test system is N2a cells expressing Tau^RDΔK. Briefly: Uptake of FAM-labeled D-peptides by confocal microscopy. The series is classed as cell-based. The note with it: 25 μM FAM-labeled peptide, 24 h, fixed cells. As for the experimental part:
In order to become potentially suitable for therapeutic development, the D-peptides should be internalized by neurons. To test this, 25 μM FAM-labeled ISAD1 or its inversed form was added to cells that express pro-aggregant mutant Tau^RDΔK for 24 h followed by cell fixation.
Fig. 7 Uptake of fluorescence-labeled D-peptides analyzed by confocal microscopy. 25 μM FAM-labeled peptides (ISAD1 and ISArev) were incubated with N2a cells expressing Tau^RDΔK for 24 h. The uptake of D-peptides was analyzed by confocal microscopy. As shown in the representative images, the peptides are mainly localized in the cytoplasm (A1, B1 Draq5 shown as red; A2 ISAD1-FAM, B2 ISAD1rev-FAM; A3, B3 merged images)

T1 sequence (P10636 with tags, fused parts or gaps isoform P10636-8 DEL280-280): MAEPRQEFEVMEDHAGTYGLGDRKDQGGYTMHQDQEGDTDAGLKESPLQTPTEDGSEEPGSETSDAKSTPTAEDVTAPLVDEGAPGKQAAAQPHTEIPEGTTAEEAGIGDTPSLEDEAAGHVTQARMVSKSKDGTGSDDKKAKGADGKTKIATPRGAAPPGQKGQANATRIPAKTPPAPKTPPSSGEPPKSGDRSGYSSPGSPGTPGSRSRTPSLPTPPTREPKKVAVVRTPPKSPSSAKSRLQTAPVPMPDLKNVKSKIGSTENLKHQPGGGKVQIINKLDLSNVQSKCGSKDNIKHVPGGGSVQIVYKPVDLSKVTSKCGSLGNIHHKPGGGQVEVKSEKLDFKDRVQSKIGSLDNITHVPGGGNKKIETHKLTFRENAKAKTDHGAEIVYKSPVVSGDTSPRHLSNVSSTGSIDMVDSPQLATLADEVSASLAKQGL

`CC(C)C[C@@H](NC(=O)[C@@H](CO)NC(=O)[C@@H](CC(C)C)NC(=O)[C@H](NC(=O)[C@@H](CC(=O)O)NC(=O)[C@@H](C)NC(=O)[C@@H](C)NC(=O)[C@H](N)CO)[C@H](C)O)C(=O)N[C@H](CCCCN)C(=O)N[C@H](Cc1ccccc1)C(=O)N[C@@H](C(=O)N[C@H](CO)C(=O)O)C(C)C` [ISAD1rev] (H-[dS][dA][dA][dD][dT][dL][dS][dL][dK][dF][dV][dS]-OH; N-terminus and C-terminus assumed): the “Inhibition of Tau^FLΔK fibrillization, in words” value at Tau^FLΔK is on record as “weak inhibitory effects”. The “Distribution of full-length Tau mutants between pellet and supernatant” value in series [1] is “more fractions in the supernatant”. Further, in series [2], the Intracellular localisation result was “accumulated in the cytosol but were excluded from the nucleus” and the Uptake by cells result is “almost all cells took up the D-peptides”.
